The text below walks through data of patent publication US20100105655A1, “NOVEL COMPOUNDS 515” (ASTRAZENECA AB, priority 2008, published 2010).

T1 sequence (P08069 31-1367): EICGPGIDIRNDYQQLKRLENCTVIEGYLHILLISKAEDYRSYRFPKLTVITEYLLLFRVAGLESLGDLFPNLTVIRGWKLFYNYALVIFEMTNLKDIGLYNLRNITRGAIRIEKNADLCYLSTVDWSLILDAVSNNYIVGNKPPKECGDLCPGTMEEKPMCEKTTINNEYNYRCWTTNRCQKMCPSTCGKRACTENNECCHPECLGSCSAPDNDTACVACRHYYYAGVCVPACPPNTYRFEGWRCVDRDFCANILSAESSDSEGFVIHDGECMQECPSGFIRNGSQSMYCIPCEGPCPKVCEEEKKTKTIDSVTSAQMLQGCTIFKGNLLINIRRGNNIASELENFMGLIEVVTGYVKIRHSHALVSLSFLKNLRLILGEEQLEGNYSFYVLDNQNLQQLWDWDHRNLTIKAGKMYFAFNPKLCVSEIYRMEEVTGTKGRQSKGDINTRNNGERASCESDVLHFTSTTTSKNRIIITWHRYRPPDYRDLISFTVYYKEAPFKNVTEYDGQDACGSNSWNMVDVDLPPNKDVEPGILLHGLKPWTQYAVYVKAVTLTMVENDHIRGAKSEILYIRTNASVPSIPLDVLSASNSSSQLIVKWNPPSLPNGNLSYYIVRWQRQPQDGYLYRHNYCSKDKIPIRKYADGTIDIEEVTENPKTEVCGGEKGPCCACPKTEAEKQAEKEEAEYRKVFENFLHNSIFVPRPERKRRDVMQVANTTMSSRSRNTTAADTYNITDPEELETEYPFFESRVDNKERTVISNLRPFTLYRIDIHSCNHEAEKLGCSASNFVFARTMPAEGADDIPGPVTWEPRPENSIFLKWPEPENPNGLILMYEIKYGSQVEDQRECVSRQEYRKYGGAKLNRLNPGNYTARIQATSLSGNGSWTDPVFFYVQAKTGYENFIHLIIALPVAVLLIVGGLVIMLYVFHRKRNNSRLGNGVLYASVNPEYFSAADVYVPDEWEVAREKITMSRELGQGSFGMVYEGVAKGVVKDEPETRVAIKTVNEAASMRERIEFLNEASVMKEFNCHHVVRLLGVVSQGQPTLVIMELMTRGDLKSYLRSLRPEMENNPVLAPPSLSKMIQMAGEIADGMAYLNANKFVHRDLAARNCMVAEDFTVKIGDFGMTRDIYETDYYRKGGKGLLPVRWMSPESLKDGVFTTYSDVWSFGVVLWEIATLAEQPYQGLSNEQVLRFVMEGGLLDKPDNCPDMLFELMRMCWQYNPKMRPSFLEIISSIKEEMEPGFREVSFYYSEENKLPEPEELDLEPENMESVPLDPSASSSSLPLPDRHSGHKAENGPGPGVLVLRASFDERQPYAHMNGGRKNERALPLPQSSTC

The test addresses T1, IGFR kinase (Homo sapiens, UniProt P08069).
T1 construct: purchased Millipore
Kind of test: Enzyme assay (c), IGFR kinase, Caliper LabChip. The format is biochemical. Particulars: 30 nM IGFR kinase, 6 uM ATP, 3 uM peptide mix; read-out: IGFR IC50.
The term IC50 denotes the concentration that gives 50% inhibition. Consider `COc1cc(N2CCN(C(=O)[C@@H](C)OC)CC2)ccc1Nc1ncc(Cl)c(-c2cnc3ccccn23)n1` [Example 25.5, (2R)-1-[4-[4-[(5-chloro-4-imidazo[1,2-a]pyridin-3-yl-pyrimidin-2-yl)amino]-3-methoxy-phenyl]piperazin-1-yl]-2-methoxy-propan-1-one], for which the IC50 was 9 nM.

As for `COc1cc(N2CCN(C(=O)C(C)(C)O)CC2)ccc1Nc1ncc(Cl)c(-c2cnc3ccccn23)n1` [Example 25.6, 1-[4-[4-[(5-chloro-4-imidazo[1,2-a]pyridin-3-yl-pyrimidin-2-yl)amino]-3-methoxy-phenyl]piperazin-1-yl]-2-hydroxy-2-methyl-propan-1-one], the IC50 is 11 nM.

As for `COc1cc(OC2CN(C(=O)[C@H](C)O)C2)ccc1Nc1ncc(Cl)c(-c2cnc3ccccn23)n1` [Example 27.1, (2S)-1-[3-[4-[(5-chloro-4-imidazo[1,2-a]pyridin-3-yl-pyrimidin-2-yl)amino]-3-methoxy-phenoxy]azetidin-1-yl]-2-hydroxy-propan-1-one], the IC50 stood at 31 nM.

With `COc1cc(OC2CN(C(=O)[C@H](C)OC)C2)ccc1Nc1ncc(Cl)c(-c2cnc3ccccn23)n1` [Example 27.2, (2S)-1-[3-[4-[(5-chloro-4-imidazo[1,2-a]pyridin-3-yl-pyrimidin-2-yl)amino]-3-methoxy-phenoxy]azetidin-1-yl]-2-methoxy-propan-1-one], the IC50 was 36 nM.

In the case of `COc1cc(OC2CN(C(=O)CO)C2)ccc1Nc1ncc(Cl)c(-c2cnc3ccccn23)n1` [Example 27.3, 1-[3-[4-[(5-chloro-4-imidazo[1,2-a]pyridin-3-yl-pyrimidin-2-yl)amino]-3-methoxy-phenoxy]azetidin-1-yl]-2-hydroxy-ethanone], the IC50 is 22 nM.

On to `COc1cc(OC2CN(C(=O)[C@@H](C)OC)C2)ccc1Nc1ncc(Cl)c(-c2cnc3ccccn23)n1` [Example 27.4, (2R)-1-[3-[4-[(5-chloro-4-imidazo[1,2-a]pyridin-3-yl-pyrimidin-2-yl)amino]-3-methoxy-phenoxy]azetidin-1-yl]-2-methoxy-propan-1-one], for which the IC50 is 24 nM.

As to `COc1cc(OC2CN(C(=O)C3(O)CC3)C2)ccc1Nc1ncc(Cl)c(-c2cnc3ccccn23)n1` [Example 27.5, [3-[4-[(5-chloro-4-imidazo[1,2-a]pyridin-3-yl-pyrimidin-2-yl)amino]-3-methoxy-phenoxy]azetidin-1-yl]-(1-hydroxycyclopropyl)methanone], the IC50 was 23 nM.

Take `COc1cc(OC2CN(C(=O)[C@@H](C)O)C2)ccc1Nc1ncc(Cl)c(-c2cnc3ccccn23)n1` [Example 27.6, (2R)-1-[3-[4-[(5-chloro-4-imidazo[1,2-a]pyridin-3-yl-pyrimidin-2-yl)amino]-3-methoxy-phenoxy]azetidin-1-yl]-2-hydroxy-propan-1-one]: the IC50 was 14 nM.

Take `COc1cc(C2CCN(C(=O)[C@@H](C)OC)CC2)ccc1Nc1ncc(Cl)c(-c2cnc3ccccn23)n1` [Example 28.1, (2R)-1-[4-[4-[(5-chloro-4-imidazo[1,2-a]pyridin-3-yl-pyrimidin-2-yl)amino]-3-methoxy-phenyl]-1-piperidyl]-2-methoxy-propan-1-one]: the IC50 was determined as 5 nM.

In the case of `COc1cc(C2CCN(C(=O)[C@@H](C)O)CC2)ccc1Nc1ncc(Cl)c(-c2cnc3ccccn23)n1` [Example 28.2, (2R)-1-[4-[4-[(5-chloro-4-imidazo[1,2-a]pyridin-3-yl-pyrimidin-2-yl)amino]-3-methoxy-phenyl]-1-piperidyl]-2-hydroxy-propan-1-one], the IC50 stood at 6 nM.

With `COc1cc(C2CCN(C(=O)[C@H](C)OC)CC2)ccc1Nc1ncc(Cl)c(-c2cnc3ccccn23)n1` [Example 28.3, (2S)-1-[4-[4-[(5-chloro-4-imidazo[1,2-a]pyridin-3-yl-pyrimidin-2-yl)amino]-3-methoxy-phenyl]-1-piperidyl]-2-methoxy-propan-1-one], the IC50 is 6 nM.

On to `COc1cc(C2CCN(C(=O)[C@H](C)O)CC2)ccc1Nc1ncc(Cl)c(-c2cnc3ccccn23)n1` [Example 28.4, (2S)-1-[4-[4-[(5-chloro-4-imidazo[1,2-a]pyridin-3-yl-pyrimidin-2-yl)amino]-3-methoxy-phenyl]-1-piperidyl]-2-hydroxy-propan-1-one], for which the IC50 amounted to 14 nM.

As to `COc1cc(C2CCN(C(=O)CO)CC2)ccc1Nc1ncc(Cl)c(-c2cnc3ccccn23)n1` [Example 28.5, 1-[4-[4-[(5-chloro-4-imidazo[1,2-a]pyridin-3-yl-pyrimidin-2-yl)amino]-3-methoxy-phenyl]-1-piperidyl]-2-hydroxy-ethanone], the IC50 is 4 nM.

In the case of `COc1cc(C(=O)N2C[C@@H]3C[C@H]2CN3)ccc1Nc1ncc(Cl)c(-c2cnc3ccccn23)n1` [Example 29, [4-[(5-chloro-4-imidazo[1,2-a]pyridin-3-yl-pyrimidin-2-yl)amino]-3-methoxy-phenyl]-[(1S,4S)-2,5-diazabicyclo[2.2.1]heptan-5-yl]methanone], the IC50 amounted to 17 nM.

Take `COc1cc(C(=O)N2CCNCC2)ccc1Nc1ncc(Cl)c(-c2cnc3ccccn23)n1` [Example 30, [4-[(5-chloro-4-imidazo[1,2-a]pyridin-3-yl-pyrimidin-2-yl)amino]-3-methoxy-phenyl]-piperazin-1-yl-methanone]: the IC50 is 33 nM.

`COc1cc(C(=O)N2C[C@@H]3C[C@H]2CN3C)ccc1Nc1ncc(Cl)c(-c2cnc3ccccn23)n1` [Example 31, [4-[(5-chloro-4-imidazo[1,2-a]pyridin-3-yl-pyrimidin-2-yl)amino]-3-methoxy-phenyl]-[(1S,4S)-5-methyl-2,5-diazabicyclo[2.2.1]heptan-2-yl]methanone]: the IC50 worked out at 21 nM.

Consider `COc1cc(C(=O)N2CCN(CCO)CC2)ccc1Nc1ncc(Cl)c(-c2cnc3ccccn23)n1` [Example 32, [4-[(5-chloro-4-imidazo[1,2-a]pyridin-3-yl-pyrimidin-2-yl)amino]-3-methoxy-phenyl]-[4-(2-hydroxyethyl)piperazin-1-yl]methanone], for which the IC50 is 19 nM.

For the molecule `COc1cc(C(=O)N(C)CCO)ccc1Nc1ncc(Cl)c(-c2cnc3ccccn23)n1` [Example 33, 4-[(5-chloro-4-imidazo[1,2-a]pyridin-3-yl-pyrimidin-2-yl)amino]-N-(2-hydroxyethyl)-3-methoxy-N-methyl-benzamide], the IC50 is 57 nM.

On to `COc1cc(CC(=O)N2CCNCC2)ccc1Nc1ncc(Cl)c(-c2cnc3ccccn23)n1` [Example 34, 2-[4-[(5-chloro-4-imidazo[1,2-a]pyridin-3-yl-pyrimidin-2-yl)amino]-3-methoxy-phenyl]-1-piperazin-1-yl-ethanone], for which the IC50 stood at 98 nM.

Regarding `COc1cc(CC(=O)O)ccc1Nc1ncc(Cl)c(-c2cnc3ccccn23)n1` [Example 34A, 2-(4-(5-chloro-4-(imidazo[1,2-a]pyridin-3-yl)pyrimidin-2-ylamino)-3-methoxyphenyl)acetic acid], the IC50 was determined as 132 nM.

For the molecule `COc1cc(CC(=O)NC2CCNC2)ccc1Nc1ncc(Cl)c(-c2cnc3ccccn23)n1` (stereo not drawn) [Example 35, 2-[4-[(5-chloro-4-imidazo[1,2-a]pyridin-3-yl-pyrimidin-2-yl)amino]-3-methoxy-phenyl]-N-pyrrolidin-3-yl-acetamide], the half-maximal inhibitory concentration (IC50) turned out to be 21 nM.
